For orientation: inhibition means the change of the read-out against control, counted positive when it falls.

Drawing on PubChem BioAssay AID652107 (NMMLSC, 2013), this text covers inhibition for one compound.

The subject of this assay is human granulocytes, fMLF-stimulated F-actin, FITC-phalloidin flow. Briefly: actin polymerization inhibitors in human granulocytes – cell-based, primary human granulocytes, FITC-phalloidin flow cytometry, mechanism study for Cdc42 probe extension project (AID 652107). Particulars: at 10 µM; stronger effect = higher value. For orientation: A flow cytometer gives signals particle by particle.

As to `COc1ccc(C2CC(c3ccccc3)=NN2c2ccc(S(N)(=O)=O)cc2)cc1` (stereo unspecified), the inhibition is 10%.
